The record followed here is US20250214977A1, “STAT6 INHIBITORS AND USES THEREOF” (Kymera Therapeutics, Inc., priority 2024, published 2025).

The assay deals with Phosphorylation of STAT6 in human A549 cells. Description: Phosphorylated STAT6 (pSTAT6) flow cytometry assay in human A549 cells. The class given is cell-based. The source says: Example 3. Phosphorylated STAT6 (pSTAT6) Flow Cytometry Assay in Human A549 Cells
Phosphorylation of STAT6 in human A549 cells was quantitatively measured using flow cytometry technology.
For orientation: In flow cytometry, cells or beads pass a laser one at a time.

Where [1] appears, read: read-out: STAT6 IL4 pSTAT6 assay in A549 cells: Average IC50.

Like-named read-outs stand apart in the source and are kept apart here.

As to `COc1cc(F)cnc1N1CCN(C(=O)c2cc3c(C4=CCN(Cc5ccccc5)CC4)cc(C4=CCCN(C(=O)CCn5ccnn5)C4)c(F)c3[nH]2)CC1` [Example I-1132], the half-maximal inhibitory concentration (IC50) under setting [1] was under 100 nM.

`O=C(CCn1ccnn1)N1CCC=C(c2cc(-c3ccccc3F)c3cc(C(=O)N4CCN(c5ncccc5OC5CC5)CC4)[nH]c3c2F)C1` [Example I-343]: the concentration for half-maximal inhibition (IC50) under setting [1] was under 100 nM.

Turning to `COc1ccccc1-c1cc(C2=CCCN(C(=O)CCn3ccnn3)C2)c(F)c2[nH]c(C(=O)N3CCN(c4ncccc4C(F)(F)F)CC3)cc12` [Example I-329], the 50% inhibitory concentration (IC50) under setting [1] was under 100 nM.

In the case of `CCc1ncccc1-c1cc(C(=O)N2CCN(c3ncc(F)cc3OC)CC2)cc2cc(C3=CCCN(C(=O)C(=O)O)C3)n(CC3CC3)c12` [Example I-797], the half-maximal inhibitory concentration (IC50) under setting [1] is over 100000 nM.

Regarding `COc1cc(F)c(F)cc1-c1cc(C2=CCCN(C(=O)CCn3ccnn3)C2)c(F)c2[nH]c(C(=O)N3CCN(c4ccccc4OC)CC3)cc12` [Example I-600], the 50% inhibitory concentration (IC50) under setting [1] is under 100 nM.

On to `COc1cc(N2CCN(C(=O)c3cc4c(-c5ccccc5OC)cc(C5=CCCN(C(=O)CCn6ccnn6)C5)c(F)c4[nH]3)CC2)c2ccnn2c1` [Example I-926], for which the half-maximal inhibitory concentration (IC50) under setting [1] is under 100 nM.

Regarding `CCOc1ccc(-c2cc(C3=CCCN(C(=O)CCn4ccnn4)C3)c(F)c3[nH]c(C(=O)N4CCN(c5ncc(F)cc5OC)CC4)cc23)c(OC)c1` [Example I-661], the half-inhibitory concentration (IC50) under setting [1] was under 100 nM.

For `COc1cccc(N2CCN(C(=O)c3cc4c(-c5ccc(F)cc5OC)cc(C5=CCCN(C(=O)CCn6ccnn6)C5)c(F)c4[nH]3)CC2)n1` [Example I-589], the IC50 under setting [1] was under 100 nM.

`CCc1cc(C)ncc1-c1cc(C2=CCCN(C(=O)CCn3ccnn3)C2)c(F)c2[nH]c(C(=O)N3CCN(c4ncc(F)cc4OC)CC3)cc12` [Example I-707]: the IC50 under setting [1] was in the range of 10000 to 100000 nM.

`COc1ccccc1-c1cc(C2=CCCN(C(C)=O)C2)c(F)c2[nH]c(C(=O)N3CCN(c4ncccc4OC)CC3)cc12` [Example I-553]: under setting [1], the half-inhibitory concentration (IC50) was in the range of 100 to 1000 nM.

As for `COc1ccccc1-c1cc(C2=CCCN(C(=O)CCn3ccnn3)C2)c(F)c2[nH]c(C(=O)N3CCc4n[nH]cc4C3)cc12` [Example I-851], the concentration for half-maximal inhibition (IC50) under setting [1] is under 100 nM.

Turning to `COc1ccccc1-c1cc(C2=CCCN(C(=O)CCn3ccnn3)C2)c(F)c2[nH]c(C(=O)N3CCN(c4cc(C)cc5c[nH]nc45)CC3)cc12` [Example I-921], under setting [1], the IC50 fell in the range of 100 to 1000 nM.

As to `COc1cnccc1-c1cc(C2=CCCN(C(C)=O)C2)c(F)c2[nH]c(C(=O)N3CCN(c4ncccc4OC)CC3)cc12` [Example I-408], the IC50 under setting [1] was over 100000 nM.

Consider `COc1ccc(NC(=O)c2cc3c(-c4ccccc4OC)cc(C4=CCCN(C(=O)CCn5ccnn5)C4)c(F)c3[nH]2)cn1` [Example I-979], for which the half-maximal inhibitory concentration (IC50) under setting [1] is 100 to 1000 nM.

On to `COc1ccccc1-c1cc(C2=CCCN(C(=O)CCn3ccnn3)C2)c(F)c2[nH]c(C(=O)N3Cc4c(C)nn(C)c4C3)cc12` [Example I-509], for which the IC50 under setting [1] is under 100 nM.

`COc1ccccc1-c1cc(C2=CCCN(C(=O)CCn3ccnn3)C2)c(F)c2[nH]c(C(=O)N3CCN(Cc4ccccc4)CC3)cc12` [Example I-1202]: the IC50 under setting [1] is under 100 nM.

For the molecule `COc1cc(F)cnc1N1CCN(C(=O)c2cc3c(-c4ccc(OC5CCOCC5)cc4)cc(C4=CCCN(C(=O)CCn5ccnn5)C4)c(F)c3[nH]2)CC1` [Example I-1111], the IC50 under setting [1] is under 100 nM.

As to `COc1ccccc1-c1cc(C2=CCCN(C(=O)CCn3ccnn3)C2)c(F)c2[nH]c(C(=O)N3CCN(c4ccccc4F)CC3)cc12` [Example I-418], the half-inhibitory concentration (IC50) under setting [1] was under 100 nM.

Take `CC(=O)N1CCC=C(c2cc(-c3ccc4cncnc4c3)c3cc(C(=O)N(C)C)[nH]c3c2F)C1` [Example I-887]: the IC50 under setting [1] was in the range of 100 to 1000 nM.

`COCOc1ccc(F)cc1-c1cc(C2=CCCN(C(=O)CCn3ccnn3)C2)c(F)c2[nH]c(C(=O)N3CCN(c4ncc(F)cc4OC)CC3)cc12` [Example I-660]: under setting [1], the IC50 is under 100 nM.

As to `COc1ccccc1-c1cc(C2=CCCN(C(=O)CCn3ccnn3)C2)c(F)c2[nH]c(C(=O)N3CCN(c4cc5cccnc5cc4F)CC3)cc12` [Example I-924], the IC50 under setting [1] is under 100 nM.

On to `COc1cnc(N2CCN(C(=O)c3cc4c(-c5cnccc5OC)cc(C5=CCCN(C(=O)CCn6ccnn6)C5)c(F)c4[nH]3)CC2)c(OC)c1` [Example I-437], for which the half-inhibitory concentration (IC50) under setting [1] is under 100 nM.

In the case of `COc1cc(F)cnc1N1CCN(C(=O)c2cc3c([C@H]4CCCN4C)cc(C4=CCCN(C(=O)CCn5ccnn5)C4)c(F)c3[nH]2)CC1` (single isomer, unassigned) [Example I-814], the IC50 runs as follows: (listed as I-391, read-out: STAT6 IL4 pSTAT6 assay in A549 cells: Average IC50) under 100 nM; under setting [1], over 100000 nM.

As for `COc1cc(F)cnc1N1CCN(C(=O)c2cc(-c3cccnc3OC)c3c(c2)cc(C2=CCCN(C(=O)CCn4ccnn4)C2)n3CC2CC2)CC1` [Example I-726], the concentration for half-maximal inhibition (IC50) under setting [1] is under 100 nM.

For `COc1cncc(C)c1-c1cc(C2=CCCN(C(=O)CCn3ccnn3)C2)cc2cc(C(=O)N(C)C)oc12` [Example I-1090], the IC50 under setting [1] was under 100 nM.

In the case of `COc1ccccc1-c1cc(C2=CCCN(C(=O)[C@@H]3Cc4ccccc4CN3C=O)C2)cc2cc(C(=O)N(C)C)oc12` (single isomer, unassigned) [Example I-805], the IC50 under setting [1] fell in the range of 10000 to 100000 nM.

`CN(C)C(=O)c1cc2c(-c3cc4cc[nH]c4cc3Cl)cc(C3=CCCN(C(=O)CCn4ccnn4)C3)cc2[nH]1` [Example I-1066]: the IC50 under setting [1] is under 100 nM.

On to `COc1cc(F)cnc1N1CCN(C(=O)c2cc3c(-c4ccc(-n5nc(C)cc5C)cc4)cc(C4=CCCN(C(=O)CCn5ccnn5)C4)c(F)c3[nH]2)CC1` [Example I-1114], for which the IC50 under setting [1] is under 100 nM.

As for `COc1cccnc1N1CCN(C(=O)c2cc3c(-c4cccc5c4OC(F)(F)O5)cc(C4=CCCN(C(=O)CCn5ccnn5)C4)c(F)c3[nH]2)CC1` [Example I-690], the concentration for half-maximal inhibition (IC50) under setting [1] is under 100 nM.

On to `COc1cccc(N2CCN(C(=O)c3cc4c(-c5cc(F)cc(F)c5OC)cc(C5=CCCN(C(=O)CCn6ccnn6)C5)c(F)c4[nH]3)CC2)n1` [Example I-591], for which the half-maximal inhibitory concentration (IC50) under setting [1] is under 100 nM.

In the case of `COc1cc(F)cnc1N1CCN(C(=O)c2cc3c(C4=CCC(F)(F)CC4)cc(C4=CCCN(C(=O)CCn5ccnn5)C4)c(F)c3[nH]2)CC1` [Example I-1158], under setting [1], the concentration for half-maximal inhibition (IC50) is under 100 nM.

For `COc1ccccc1-c1cc(C2=CCCN(C(=O)CCn3ccnn3)C2)c(F)c2[nH]c(C(=O)N3CCC(C)(O)C3)cc12` (stereo not shown) [Example I-1006], the IC50 under setting [1] was in the range of 100 to 1000 nM.

As for `COc1cc(F)cnc1N1CCN(C(=O)c2cc3c(C4=CCC(C#N)CC4)cc(C4=CCCN(C(=O)CCn5ccnn5)C4)c(F)c3[nH]2)CC1` (stereo not shown) [Example I-1141], the half-inhibitory concentration (IC50) under setting [1] is under 100 nM.

In the case of `COc1c(F)cc(F)cc1-c1cc(C2=CCCN(C(=O)CCn3ccnn3)C2)c(F)c2[nH]c(C(=O)N3CCN(c4ncccc4OC4CC4)CC3)cc12` [Example I-597], the IC50 under setting [1] was under 100 nM.

For the molecule `CCc1ccncc1-c1cc(C2=CCCC(C(=O)O)C2)c(F)c2[nH]c(C(=O)N3CCN(c4ncc(F)cc4OC)CC3)cc12` (stereo not shown) [Example I-1205], the 50% inhibitory concentration (IC50) under setting [1] was in the range of 1000 to 10000 nM.

For `CN(C)C(=O)c1cc2cc(C3=CCCN(C(=O)CCn4ccnn4)C3)cc(NC3CCCC3)c2o1` [Example I-874], the IC50 under setting [1] is 100 to 1000 nM.

Turning to `COc1ccccc1-c1cc(C2=CCCN(C(C)=O)C2)c(F)c2sc(C(=O)N3CCN(c4ncccc4OC)CC3)cc12` [Example I-1106], under setting [1], the half-inhibitory concentration (IC50) was in the range of 1000 to 10000 nM.

With `CN(C)C(=O)c1cc2cc(C3=CCCN(C(=O)CCn4ccnn4)C3)cc(-c3ccc(C(F)(F)F)cc3O)c2o1` [Example I-1073], the IC50 under setting [1] is under 100 nM.

In the case of `CCc1ccncc1-c1cc(C2=CCCN(C(=O)C(C)C)C2)c(F)c2[nH]c(C(=O)N3CCN(c4ncc(F)cc4OC)CC3)cc12` [Example I-1044], the half-inhibitory concentration (IC50) under setting [1] lay in the range of 1000 to 10000 nM.

For the molecule `COc1cc(F)cnc1N1CCN(C(=O)c2cc3c(-c4cccnc4C4CC4)cc(C4=CCCN(C(=O)CCn5ccnn5)C4)c(F)c3[nH]2)CC1` [Example I-628], under setting [1], the half-maximal inhibitory concentration (IC50) is under 100 nM.

For `COc1ccccc1-c1cc(C2=CCCN(C(=O)CCn3ccnn3)C2)c(F)c2[nH]c(C(=O)N3CC=C(C4CC4)CC3)cc12` [Example I-511], the IC50 under setting [1] is under 100 nM.

In the case of `COc1cc(F)cnc1N1CCN(C(=O)c2cc3c(-c4cc(C5(C#N)CC5)ccc4F)cc(C4=CCCN(C(=O)CCn5ccnn5)C4)c(F)c3[nH]2)CC1` [Example I-650], under setting [1], the concentration for half-maximal inhibition (IC50) is under 100 nM.

Regarding `COc1cccnc1N1CCN(C(=O)c2cc3c(-c4ccccc4C#N)cc(C4=CCCN(C(=O)CCn5ccnn5)C4)c(F)c3[nH]2)CC1` [Example I-573], the IC50 under setting [1] was under 100 nM.

Take `CN(C)C(=O)c1cc2cc(C3=CCCN(C(=O)CCn4ccnn4)C3)cc(-c3ccc4cnn(C)c4c3)c2o1` [Example I-1072]: under setting [1], the half-inhibitory concentration (IC50) is under 100 nM.

Consider `CCC/C=C/c1cc(C2=CCCN(C(=O)CCn3ccnn3)C2)c(F)c2[nH]c(C(=O)N3CCN(c4ncc(F)cc4OC)CC3)cc12` [Example I-677], for which the 50% inhibitory concentration (IC50) under setting [1] is under 100 nM.

In the case of `CN(C)C(=O)c1cc2c(F)c(C3=CCCN(C(=O)[C@H]4Cc5ccccc5CN4C=O)C3)ccc2o1` (single isomer, unassigned) [Example I-376], the IC50 under setting [1] is over 100000 nM.

For the molecule `COc1ccc(Cl)cc1-c1cc(C2=CCCN(C(=O)CCn3ccnn3)C2)cc2[nH]c(C(=O)N(C)C)cc12` [Example I-1058], the half-inhibitory concentration (IC50) under setting [1] was under 100 nM.

For “(1R)-3-[4-(4-ethyl-3-pyridyl)-7-fluoro-2-[4-(5-fluoro-3-methoxy-2-pyridyl)piperazine-1-carbonyl]-1H-indol-6-yl]cyclohex-3-ene-1-carboxylic acid [Example I-810]”, the half-maximal inhibitory concentration (IC50) under setting [1] was under 100 nM.

With `COc1cc(F)cnc1N1CCN(C(=O)c2cc3c(-c4ccn(-c5ccccc5)n4)cc(C4=CCCN(C(=O)CCn5ccnn5)C4)c(F)c3[nH]2)CC1` [Example I-1113], the IC50 under setting [1] is 100 to 1000 nM.

With `CCc1cc(C)ncc1-c1cc(C2=CCCN(C(=O)CCn3ccnn3)C2)c(F)c2[nH]c(C(=O)N3CCN(c4nccnc4OC)CC3)cc12` [Example I-519], under setting [1], the IC50 was under 100 nM.

Consider `COc1ccccc1-c1cc(C2=CCCN(C(=O)CCn3ccnn3)C2)c(F)c2[nH]c(C(=O)N3CCN(c4cnn(C)c4C#N)CC3)cc12` [Example I-1005], for which the concentration for half-maximal inhibition (IC50) under setting [1] is under 100 nM.

Usually IC50 stands for the point on the concentration scale where inhibition reaches its midpoint.
